Data from patent publication US11452717B2, “Small molecule activators of nicotinamide phosphoribosyltransferase (NAMPT) and uses thereof” (Sanford Burnham Prebys Medical Discovery Institute, priority 2017, dated 2022).
Several values for one entry are separate records, joined by “and”; a condition that tells them apart may be missing. Equal entries are not always repeated.

The compounds below were run against NAMPT enzyme (Homo sapiens (Human), UniProt P43490) (assay: Enzyme Assay and NMN Detection (NAMPT reaction, fluorescence detection of NMN)). Conditions: Table B-1; NAMPT activation, NMN formation.
Sequence of NAMPT enzyme (P43490 whole entry, species assumed): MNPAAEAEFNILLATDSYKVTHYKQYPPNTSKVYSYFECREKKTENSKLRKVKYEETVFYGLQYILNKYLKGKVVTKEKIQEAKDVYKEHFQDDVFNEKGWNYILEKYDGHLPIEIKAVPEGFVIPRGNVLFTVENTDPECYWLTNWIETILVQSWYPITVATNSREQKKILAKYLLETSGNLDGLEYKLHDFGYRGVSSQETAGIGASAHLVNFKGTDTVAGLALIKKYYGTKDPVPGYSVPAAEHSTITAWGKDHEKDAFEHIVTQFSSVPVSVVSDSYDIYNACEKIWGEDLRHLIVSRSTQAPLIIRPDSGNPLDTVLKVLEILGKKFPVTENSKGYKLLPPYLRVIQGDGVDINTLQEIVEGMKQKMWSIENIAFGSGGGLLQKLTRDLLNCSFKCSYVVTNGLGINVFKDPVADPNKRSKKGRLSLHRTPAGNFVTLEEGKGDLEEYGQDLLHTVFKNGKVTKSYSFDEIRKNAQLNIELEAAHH
Assay type: biochemical
How it was run: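 Reaction in 50 mM HEPES pH 7.5, 5 mM MgCl2, 0.1% Prionex, 0.005% Tween 20, 1 mM TCEP at room temperature, with 16 nM NAMPT, 120 uM ATP, 5 uM nicotinamide, 6.25 uM PRPP, 0.04 U/ml pyrophosphatase for 2 h. Stopped with acetophenone/KOH then formic acid; NMN quantified by fluorescence (ex380/em460) against calibration curve.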

EC50 [µM]	Structure (SMILES)
< 0.1	O=C(NCc1cn[nH]c1)Nc1ccc(S(=O)(=O)c2ccccc2Cl)cc1 [1-[4-(2-Chloro-benzenesulfonyl)-phenyl]-3-(1H-pyrazol-4-ylmethyl)-urea]
< 0.1	COc1ccccc1S(=O)(=O)c1ccc(NC(=O)NCc2cn[nH]c2)cc1 [1-[4-(2-Methoxy-benzenesulfonyl)-phenyl]-3-(1H-pyrazol-4-ylmethyl)-urea]

Same assay, conditions: Table B-2; NAMPT activation, NMN formation

EC50 [µM]	Structure (SMILES)
< 0.1	COc1ccccc1S(=O)(=O)c1ccc(NC(=O)NCc2ccncc2)cc1 [1-[4-(2-Methoxy-benzenesulfonyl)-phenyl]-3-pyridin-4-ylmethyl-urea]

Same assay, conditions: Table B-4; NAMPT activation, NMN formation

EC50 [µM]	Structure (SMILES)
2 to 5	CC(C)N1CCC(S(=O)(=O)c2ccc(NC(=O)NCc3cn[nH]c3)cc2)CC1 [1-[4-(1-Isopropyl-piperidine-4-sulfonyl)-phenyl]-3-(1H-pyrazol-4-ylmethyl)-urea]
0.1 to 2	Cn1nc(-c2ccc(NC(=O)NCc3cn[nH]c3)cc2)c2ccccc21 [1-[4-(1-Methyl-1H-indazol-3-yl)-phenyl]-3-(1H-pyrazol-4-ylmethyl)-urea]
0.1 to 2	Cn1cc(S(=O)(=O)c2ccc(NC(=O)NCc3cn[nH]c3)cc2)cn1 [1-[4-(1-Methyl-1H-pyrazole-4-sulfonyl)-phenyl]-3-(1H-pyrazol-4-ylmethyl)-urea]
0.1 to 2	Cn1nc(-c2ccc(NC(=O)NCc3cn[nH]c3)cc2)c2cccnc21 [1-[4-(1-Methyl-1H-pyrazolo[3,4-b]pyridin-3-yl)-phenyl]-3-(1H-pyrazol-4-ylmethyl)-urea]
0.1 to 2	Cn1nc(-c2ccc(NC(=O)NCc3cn[nH]c3)cc2)c2ncccc21 [1-[4-(1-Methyl-1H-pyrazolo[4,3-b]pyridin-3-yl)-phenyl]-3-(1H-pyrazol-4-ylmethyl)-urea]
2 to 5	Cn1nc(-c2ccc(NC(=O)NCc3cn[nH]c3)cc2)c2cnccc21 [1-[4-(1-Methyl-1H-pyrazolo[4,3-c]pyridin-3-yl)-phenyl]-3-(1H-pyrazol-4-ylmethyl)-urea]
2 to 5	CN1CCC(S(=O)(=O)c2ccc(NC(=O)NCc3cn[nH]c3)cc2)CC1 [1-[4-(1-Methyl-piperidine-4-sulfonyl)-phenyl]-3-(1H-pyrazol-4-ylmethyl)-urea]
> 20	O=C(NCc1cn[nH]c1)Nc1ccc(-c2cccc3[nH]cnc23)cc1 [1-[4-(1H-Benzoimidazol-4-yl)-phenyl]-3-(1H-pyrazol-4-ylmethyl)-urea]
0.1 to 2	O=C(NCc1cn[nH]c1)Nc1ccc(-c2n[nH]c3ccccc23)cc1 [1-[4-(1H-Indazol-3-yl)-phenyl]-3-(1H-pyrazol-4-ylmethyl)-urea]
0.1 to 2	O=C(NCc1cn[nH]c1)Nc1ccc(S(=O)(=O)c2ccc(Cl)cc2Cl)cc1 [1-[4-(2,4-Dichloro-benzenesulfonyl)-phenyl]-3-(1H-pyrazol-4-ylmethyl)-urea]
< 0.1	O=C(NCc1cn[nH]c1)Nc1ccc(S(=O)(=O)c2ccc(F)cc2F)cc1 [1-[4-(2,4-Difluoro-benzenesulfonyl)-phenyl]-3-(1H-pyrazol-4-ylmethyl)-urea]
< 0.1	O=C(NCc1cn[nH]c1)Nc1ccc(S(=O)(=O)c2ccccc2-c2ccccc2F)cc1 [1-[4-(2′-Fluoro-biphenyl-2-sulfonyl)-phenyl]-3-(1H-pyrazol-4-ylmethyl)-urea]
5 to 20	COc1ccccc1-c1ccccc1S(=O)(=O)c1ccc(NC(=O)NCc2cn[nH]c2)cc1 [1-[4-(2′-Methoxy-biphenyl-2-sulfonyl)-phenyl]-3-(1H-pyrazol-4-ylmethyl)-urea]
5 to 20	O=C(NCc1cn[nH]c1)Nc1ccc(S(=O)(=O)c2ccc(Cl)c(Cl)c2)cc1 [1-[4-(3,4-Dichloro-benzenesulfonyl)-phenyl]-3-(1H-pyrazol-4-ylmethyl)-urea]
0.1 to 2	O=C(NCc1cn[nH]c1)Nc1ccc(S(=O)(=O)c2ccc(F)c(F)c2)cc1 [1-[4-(3,4-Difluoro-benzenesulfonyl)-phenyl]-3-(1H-pyrazol-4-ylmethyl)-urea]

Same assay, conditions: Table B-5; NAMPT activation, NMN formation

EC50	Structure (SMILES)
2 to 5 µM	Cn1nc(-c2ccc(NC(=O)NCc3cnco3)cc2)c2ccccc21 [1-[4-(1-Methyl-1H-indazol-3-yl)-phenyl]-3-oxazol-5-ylmethyl-urea]
2 to 5 µM	Cn1cc(S(=O)(=O)c2ccc(NC(=O)NCc3cnco3)cc2)cn1 [1-[4-(1-Methyl-1H-pyrazole-4-sulfonyl)-phenyl]-3-oxazol-5-ylmethyl-urea]
2 to 5 µM	Cn1nc(-c2ccc(NC(=O)NCc3cnco3)cc2)c2cccnc21 [1-[4-(1-Methyl-1H-pyrazolo[3,4-b]pyridin-3-yl)-phenyl]-3-oxazol-5-ylmethyl-urea]
2 to 5 µM	Cn1nc(-c2ccc(NC(=O)NCc3cnco3)cc2)c2ncccc21 [1-[4-(1-Methyl-1H-pyrazolo[4,3-b]pyridin-3-yl)-phenyl]-3-oxazol-5-ylmethyl-urea]
5 to 20 µM	Cn1nc(-c2ccc(NC(=O)NCc3cnco3)cc2)c2cnccc21 [1-[4-(1-Methyl-1H-pyrazolo[4,3-c]pyridin-3-yl)-phenyl]-3-oxazol-5-ylmethyl-urea]
2 to 5 µM	CN1CCC(S(=O)(=O)c2ccc(NC(=O)NCc3cnco3)cc2)CC1 [1-[4-(1-Methyl-piperidine-4-sulfonyl)-phenyl]-3-oxazol-5-ylmethyl-urea]
> 20 µM	O=C(NCc1cnco1)Nc1ccc(-c2cccc3[nH]cnc23)cc1 [1-[4-(1H-Benzoimidazol-4-yl)-phenyl]-3-oxazol-5-ylmethyl-urea]
0.1 to 2 µM	O=C(NCc1cnco1)Nc1ccc(-c2n[nH]c3ccccc23)cc1 [1-[4-(1H-Indazol-3-yl)-phenyl]-3-oxazol-5-ylmethyl-urea]
0.1 to 2 µM	O=C(NCc1cnco1)Nc1ccc(S(=O)(=O)c2ccc(F)cc2F)cc1 [1-[4-(2,4-Difluoro-benzenesulfonyl)-phenyl]-3-oxazol-5-ylmethyl-urea]
0.1 to 2 µM	O=C(NCc1cnco1)Nc1ccc(S(=O)(=O)c2ccccc2Cl)cc1 [1-[4-(2-Chloro-benzenesulfonyl)-phenyl]-3-oxazol-5-ylmethyl-urea]
0.1 to 2 µM and 2 to 5 µM	O=C(NCc1cnco1)Nc1ccc(S(=O)(=O)c2ccc(Cl)c(Cl)c2)cc1 [1-[4-(3,4-Dichloro-benzenesulfonyl)-phenyl]-3-oxazol-5-ylmethyl-urea]
0.1 to 2 µM	O=C(NCc1cnco1)Nc1ccc(S(=O)(=O)c2ccc(F)c(F)c2)cc1 [1-[4-(3,4-Difluoro-benzenesulfonyl)-phenyl]-3-oxazol-5-ylmethyl-urea]

Same assay, conditions: Table B-6; NAMPT activation, NMN formation

EC50 [µM]	Structure (SMILES)
0.1 to 2	CC(C)N1CCC(S(=O)(=O)c2ccc(NC(=O)NCc3ccncc3)cc2)CC1 [1-[4-(1-Isopropyl-piperidine-4-sulfonyl)-phenyl]-3-pyridin-4-ylmethyl-urea]
0.1 to 2	Cn1nc(-c2ccc(NC(=O)NCc3ccncc3)cc2)c2ccccc21 [1-[4-(1-Methyl-1H-indazol-3-yl)-phenyl]-3-pyridin-4-ylmethyl-urea]
0.1 to 2	Cn1cc(S(=O)(=O)c2ccc(NC(=O)NCc3ccncc3)cc2)cn1 [1-[4-(1-Methyl-1H-pyrazole-4-sulfonyl)-phenyl]-3-pyridin-4-ylmethyl-urea]
5 to 20	Cn1nc(-c2ccc(NC(=O)NCc3ccncc3)cc2)c2cccnc21 [1-[4-(1-Methyl-1H-pyrazolo[3,4-b]pyridin-3-yl)-phenyl]-3-pyridin-4-ylmethyl-urea]
0.1 to 2	Cn1nc(-c2ccc(NC(=O)NCc3ccncc3)cc2)c2ncccc21 [1-[4-(1-Methyl-1H-pyrazolo[4,3-b]pyridin-3-yl)-phenyl]-3-pyridin-4-ylmethyl-urea]
5 to 20	Cn1nc(-c2ccc(NC(=O)NCc3ccncc3)cc2)c2cnccc21 [1-[4-(1-Methyl-1H-pyrazolo[4,3-c]pyridin-3-yl)-phenyl]-3-pyridin-4-ylmethyl-urea]
2 to 5	CN1CCC(S(=O)(=O)c2ccc(NC(=O)NCc3ccncc3)cc2)CC1 [1-[4-(1-Methyl-piperidine-4-sulfonyl)-phenyl]-3-pyridin-4-ylmethyl-urea]
> 20	O=C(NCc1ccncc1)Nc1ccc(-c2cccc3[nH]cnc23)cc1 [1-[4-(1H-Benzoimidazol-4-yl)-phenyl]-3-pyridin-4-ylmethyl-urea]
0.1 to 2	O=C(NCc1ccncc1)Nc1ccc(-c2n[nH]c3ccccc23)cc1 [1-[4-(1H-Indazol-3-yl)-phenyl]-3-pyridin-4-ylmethyl-urea]
0.1 to 2	O=C(NCc1ccncc1)Nc1ccc(S(=O)(=O)c2ccc(Cl)cc2Cl)cc1 [1-[4-(2,4-Dichloro-benzenesulfonyl)-phenyl]-3-pyridin-4-ylmethyl-urea]
0.1 to 2	O=C(NCc1ccncc1)Nc1ccc(S(=O)(=O)c2ccc(F)cc2F)cc1 [1-[4-(2,4-Difluoro-benzenesulfonyl)-phenyl]-3-pyridin-4-ylmethyl-urea]
0.1 to 2	O=C(NCc1ccncc1)Nc1ccc(S(=O)(=O)c2ccccc2-c2cccnc2)cc1 [1-[4-(2-Pyridin-3-yl-benzenesulfonyl)-phenyl]-3-pyridin-4-ylmethyl-urea]
0.1 to 2	O=C(NCc1ccncc1)Nc1ccc(S(=O)(=O)c2ccccc2-c2ccncc2)cc1 [1-[4-(2-Pyridin-4-yl-benzenesulfonyl)-phenyl]-3-pyridin-4-ylmethyl-urea]
< 0.1	O=C(NCc1ccncc1)Nc1ccc(S(=O)(=O)c2ccccc2-c2ccccc2F)cc1 [1-[4-(2′-Fluoro-biphenyl-2-sulfonyl)-phenyl]-3-pyridin-4-ylmethyl-urea]
5 to 20	COc1ccccc1-c1ccccc1S(=O)(=O)c1ccc(NC(=O)NCc2ccncc2)cc1 [1-[4-(2′-Methoxy-biphenyl-2-sulfonyl)-phenyl]-3-pyridin-4-ylmethyl-urea]
0.1 to 2	O=C(NCc1ccncc1)Nc1ccc(S(=O)(=O)c2ccc(Cl)c(Cl)c2)cc1 [1-[4-(3,4-Dichloro-benzenesulfonyl)-phenyl]-3-pyridin-4-ylmethyl-urea]
< 0.1	O=C(NCc1ccncc1)Nc1ccc(S(=O)(=O)c2ccc(F)c(F)c2)cc1 [1-[4-(3,4-Difluoro-benzenesulfonyl)-phenyl]-3-pyridin-4-ylmethyl-urea]
